Our source for the MIC values is DBAASP.

≈ marks a conversion by molar mass, not a printed value.

Among the test systems are Listeria grayi DSM 20601; Vibrio alginolyticus; Trichomonas vaginalis T1; Candida glabrata; Candida albicans; Streptococcus agalactiae; Candida albicans SC5314.
Common to all, as to assay: ≥ marks a high value that may be exact or a test limit, other limits are often not marked, values filed in µg/mL are converted to µM
In assay [1] the test system is Listeria monocytogenes BCRC 14845.
Assay [2] relates to Trichomonas vaginalis ATCC 50143.
Assay [3] has as its system Vibrio vulnificus BCRC 12905.
For assay [4], the system named is Trichomonas vaginalis ATCC 30001.
Assay [5] concerns Mycobacterium tuberculosis H37Rv.
Assay [6] has as its system Staphylococcus aureus ATCC 25923.
Assay [7] relates to Pseudomonas aeruginosa ATCC 9027.
Assay [8] concerns Mycobacterium tuberculosis.
In assay [9] the test system is Escherichia coli ATCC 25922.
Assay [10] concerns Candida albicans CCARM 14022.
Assay [11] has as its system Candida albicans CCARM 14021.
The subject of assay [12] is Candida albicans CCARM 14020.
Assay [13] concerns Lactiplantibacillus plantarum 965.
Assay [14] deals with Latilactobacillus sakei NCDO 2714.

For the compound `CC[C@H](C)[C@H](NC(=O)[C@H](CS)NC(=O)[C@@H](NC(=O)[C@H](CCCN=C(N)N)NC(=O)[C@H](CCCCN)NC(=O)[C@H](CC(C)C)NC(=O)[C@H](Cc1ccccc1)NC(=O)[C@H](CC(N)=O)NC(=O)CNC(=O)[C@@H](N)CS)[C@@H](C)O)C(=O)N[C@@H](CS)C(=O)N[C@H](C(=O)N[C@@H](CCCCN)C(=O)N[C@@H](CCCCN)C(=O)O)C(C)C` [CGNFLKRTCICVKK], the minimal inhibitory concentration (MIC) (usually the lowest concentration that inhibits growth of the organism) in the assay with Listeria grayi DSM 20601 was at least 60 µM.

As to `CSCC[C@H](NC(=O)[C@H](CCCN=C(N)N)NC(=O)CNC(=O)[C@H](CCCCN)NC(=O)[C@H](Cc1ccc(O)cc1)NC(=O)[C@H](Cc1ccc(O)cc1)NC(=O)[C@@H](NC(=O)[C@H](CCC(N)=O)NC(=O)[C@H](Cc1ccccc1)NC(=O)[C@H](CCCN=C(N)N)NC(=O)[C@H](CCCCN)NC(=O)[C@H](CC(C)C)NC(=O)[C@H](Cc1ccc(O)cc1)NC(=O)[C@@H]1CCCN1C(=O)[C@H](CCCCN)NC(=O)[C@@H](NC(=O)[C@@H](NC(=O)[C@H](Cc1ccccc1)NC(=O)[C@H](CCCCN)NC(=O)[C@H](CS)NC(=O)[C@H](CCC(=O)O)NC(C)=O)[C@@H](C)O)C(C)C)C(C)C)C(=O)N[C@@H](Cc1c[nH]c2ccccc12)C(=O)N[C@@H](CS)C(=O)N1CCC[C@H]1C(N)=O` [ECKFTVKPYLKRFQVYYKGRMWCP], the MIC was 8.14 µM (≈ 25.3 µg/mL) in assay [1]; at least 32.6 µM in the assay with Vibrio alginolyticus; 8.14 µM (≈ 25.3 µg/mL) in assay [2]; at least 32.6 µM in assay [3]; at least 32.6 µM in assay [4]; at least 65.1 µM against Trichomonas vaginalis T1.

Consider `CC[C@H](C)[C@H](NC(=O)[C@H](CCCCN)NC(=O)[C@H](CCCCN)NC(=O)[C@@H](NC(=O)[C@H](C)NC(=O)[C@H](CO)NC(=O)[C@@H](NC(=O)[C@H](C)NC(=O)[C@H](CO)NC(=O)[C@@H]1CCCN1C(=O)[C@@H](NC(=O)[C@H](CC(C)C)NC(=O)[C@H](CO)NC(=O)[C@H](CC(C)C)NC(=O)[C@H](CC(C)C)NC(=O)[C@H](Cc1ccccc1)NC(=O)[C@@H](N)Cc1ccccc1)[C@@H](C)CC)[C@@H](C)CC)[C@@H](C)CC)C(N)=O` [FFLLSLIPSAISAIKKI], for which the MIC in [5] is 5.4 µM (≈ 10 µg/mL); in assay [6], 5 µM (≈ 9.3 µg/mL); in assay [7] it was 5 µM (≈ 9.3 µg/mL); in the assay with Candida glabrata, at least 50 µM; in assay [8], 8.6 µM (≈ 16 µg/mL); in [9], 24 µM (≈ 44.6 µg/mL). Moreover, the minimum inhibitory concentration (MIC) is 6.25 µM (≈ 11.6 µg/mL) in the assay on Candida albicans and 5 µM (≈ 9.3 µg/mL) in the assay on Streptococcus agalactiae.

For `CC(C)C[C@H](NC(=O)[C@@H](N)Cc1c[nH]c2ccccc12)C(=O)N[C@@H](CC(N)=O)C(=O)N[C@@H](C)C(=O)N[C@@H](CCCCN)C(=O)N[C@@H](CCCN=C(N)N)C(=O)N[C@@H](Cc1cnc[nH]1)C(=O)N[C@@H](Cc1cnc[nH]1)C(=O)NCC(=O)N[C@@H](Cc1ccc(O)cc1)C(=O)N[C@@H](CCCCN)C(=O)N[C@@H](CCCN=C(N)N)C(=O)N[C@@H](CCCCN)C(=O)N[C@@H](Cc1ccccc1)C(=O)N[C@@H](Cc1cnc[nH]1)C(N)=O` [WLNAKRHHGYKRKFH], the minimal inhibitory concentration (MIC) in assay [10] amounted to 16.2 µM (≈ 32 µg/mL); with Candida albicans SC5314 it was 2.86 µM (≈ 5.65 µg/mL); in [11], 5.72 µM (≈ 11.3 µg/mL); in assay [12], 2.86 µM (≈ 5.65 µg/mL).

For `CSCC[C@H](NC(=O)[C@H](CCC(N)=O)NC(=O)[C@H](CC(C)C)NC(=O)[C@H](CO)NC(=O)[C@@H](N)Cc1ccc(O)cc1)C(=O)O` [YSLQM], the MIC in assay [13] was 10 µM (≈ 6.41 µg/mL); in assay [14], 1 µM (≈ 0.641 µg/mL).
